Source: patent US12433510B2, “Methods and systems for improved collection of interstitial fluid” (Georgia Tech Research Corporation, priority 2017, dated 2025)
Where two headings read alike, the source gives them in different places.

Legend:
in vivo = conditions: female, Wistar, rat, 1 mg/kg; for AUC: mean ± SD, n = 6 rats
[1] = human, in vivo
clinical = conditions: human, in vivo
[2] = iv, ISF, 1 mg/kg bolus intravenous
[3] = iv, Serum, 1 mg/kg bolus intravenous

SMILES: CN[C@H](CC(C)C)C(=O)N[C@H]1C(=O)N[C@@H](CC(N)=O)C(=O)N[C@H]2C(=O)N[C@H]3C(=O)N[C@H](C(=O)N[C@H](C(=O)O)c4cc(O)cc(O)c4-c4cc3ccc4O)[C@H](O)c3ccc(c(Cl)c3)Oc3cc2cc(c3O[C@@H]2O[C@H](CO)[C@@H](O)[C@H](O)[C@H]2O[C@H]2C[C@](C)(N)[C@H](O)[C@H](C)O2)Oc2ccc(cc2Cl)[C@H]1O [vancomycin]
- Tmax Ratio (ISF:serum) (1 mg/kg bolus intravenous): 2.7 ± 1.6
- slope of linear correlation of paired ISF and serum drug levels (R2=0.40): 0.75±0.06
- Tmax (in vivo; delay in time to peak concentration (Tmax) in ISF compared to serum): ~17 min
- Kp (in vivo; iv, AUC Ratio (ISF:serum), 1 mg/kg bolus intravenous): 1.3 ± 0.2
- AUC (in vivo; [2]): 2300 ng·h/mL
- AUC (in vivo; [3]): 1770 ng·h/mL
- Kp (in vivo; iv, Cmax Ratio (ISF:serum), 1 mg/kg bolus intravenous): 0.9 ± 0.2
- Cmax (in vivo; [2]): 2500 ± 1000 ng/mL
- Cmax (in vivo; [3]): 2600 ± 600 ng/mL
- Tmax (in vivo; iv, Tmax, ISF, 1 mg/kg bolus intravenous): 26.6 min
- Tmax (in vivo; iv, Tmax, Serum, 1 mg/kg bolus intravenous): 10 min

SMILES: Cn1c(=O)c2c(ncn2C)n(C)c1=O [caffeine]
- CL [1]: 4.7 L/h
- t1/2 [1]: 450 min
- Cmax ([1]; 43 mg): 1030 ng/mL
- Cmax (clinical; 43 mg, Cmax): 1060 ng/mL
- AUC(0-t) (clinical; AUC(0-8 h)): 84 ng·h/mL
- clearance (clinical; CL): 68.3 mL/min
- half-life (clinical; t1/2): 564 min

SMILES: CCN=c1cc2oc3cc(NCC)c(C)cc3c(-c3ccccc3C(=O)OCC)c-2cc1C.Cl [R6G, rhodamine 6G]
- R6G concentration in protein-free serum samples (plasma proteins): 0.05 ± 0.03 µM
- R6G concentration in serum prior to filtration (plasma proteins): 9.6 ± 4.2 µM
- binding to plasma proteins (plasma proteins): strongly binds to plasma proteins
